Assay results published in US20190002480A1, “Silane-Containing Heterocyclic Compounds and Methods of Use Thereof for the Treatment of Viral Diseases” (Merck Sharp & Dohme Corp., priority 2015, published 2019).
Read-outs that look alike come from different tables or passages of the source.

Key:
HCV replicon GT6 = assay: Cell-based HCV replicon assay, GT6; conditions: Hepatitis C virus, GT6, 72 h; replicon RNA level by real-time PCR, 3 days
Procedure: (§1) To measure cell-based anti-HCV activity of compounds of the present invention, two complimentary assays were employed using various replicons. In the first assay (“Replicon Assay A”), replicon cells were seeded at 2000 cells/well in 384-well 384-well flat bottom tissue culture treated clear bottom plate (Corning 3707) in the presence of the test compound. Various concentrations of test compound, typically in 10 serial dilutions, were added to the assay mixture, with the starting concentration ranging from 333.3 nM to […]. The final concentration of DMSO was 0.5%. Fetal bovine serum was 5%, in the assay media. Cells were harvested on day 3 by removing media and washing the cells with a suitable wash buffer. The cells are lysed with the addition of 1× Qiagen lysis buffer (Cat #1062731). The replicon RNA level was measured using real time PCR (TaqMan® EZ RT-PCR, Applied Biosystems 403028) with the following primers and probes: […]
(§2) Cyclophilin RNA was used as endogenous control and was amplified in the same reaction as NS5B (multiplex PCR). The real-time RT-PCR reactions were run on ABI PRISM 7900HT Sequence Detection System using the following program: 50° C. for 2 minutes, 60° C. for 30 minutes, 95° C. for 5 minutes, 40 cycles of 94 C for 20 sec, 55 C for 1 minutes.
(§3) The amount of HCV replicon RNA per cell is quantified using a linear regression curve for a known nanogram (ng) amount of HCV replicon total RNA. This is established by plotting the Cycle Threshold values (Ct) from the Neo probe and primer set versus the log (ng) for each HCV replicon total RNA standard. The amount of HCV RNA for each replicon sample is calculated by taking the sample's Ct value, minus the line intercept, divided by the slope of the line. Similarly, the amount of Cyclophilin mRNA per cell is also quantified using a linear regression curve for a known nanogram (ng) amount of HCV replicon total RNA. Again, this is established by plotting the Cycle Threshold values (Ct) from the Cyclophilin probe and primer set versus the log (ng) for each HCV replicon total RNA standard.
(§4) In an alternate assay (“Replicon Assay B”), 1000 cells were seeded per well in a 384-well collagen coated black plate from Greiner bio-one (Cat #781946) in 5% FBS. Inhibitors of this invention were added at 24 h post-seeding, and the plates were incubated for 3 days. Cells were subsequently lysed with Qiagen lysis buffer (Cat #1062731) to extract the RNA. HCV replicon RNA level was measured by real-time PCR using the RNA-to-CT kit from Applied Biosystem (Cat #4392656) and genotype-specific primers and probes. The amplicon was located within NS5B. The sequence of the PCR primers are as follows: 5B.2F, ATGGACAGGCGCCCTGA (SEQ. ID NO. 1); 5B.2R, […] (SEQ. ID NO. 2); the probe sequence was FAM-labeled CACGCCATGCGCTGCGG (SEQ. ID NO. 3). To detect genotype 1A the primer 1A F, TGCGGAACCGGTGAGTACA and 1A R, […] were used; the probe sequence was FAM-[…].
(§5) The real-time RT-PCR reactions were run on ABI PRISM 7900HT or Viia7 Sequence Detection System using the following program: 48° C. for 30 minutes, 95 C for 10 minutes, 40 cycles of 95 C for 15 sec, 60 C for 1 minutes. The 50% effective concentration (EC50) was the drug concentration necessary to achieve an increase in the cycle threshold (CT) of 1 over the projected baseline CT. The EC90 was the drug concentration necessary to achieve an increase in CT of 3.2 over the projected baseline CT.

HCV replicon GT1b_WT = assay: Cell-based HCV replicon assay, GT1b WT; conditions: Hepatitis C virus, 72 h, read-out: GT1b_WT EC90
Procedure: as §1, §2, §3, §4, §5

HCV replicon GT4 = assay: Cell-based HCV replicon assay, GT4; conditions: Hepatitis C virus, GT4, 72 h; replicon RNA level by real-time PCR, 3 days
Procedure: as §1, §2, §3, §4, §5

HCV replicon GT1a_Q30R = assay: Cell-based HCV replicon assay, GT1a Q30R; conditions: Hepatitis C virus, 72 h, read-out: GT1a_Q30R EC90
Procedure: as §1, §2, §3, §4, §5

HCV replicon GT5 = assay: Cell-based HCV replicon assay, GT5; conditions: Hepatitis C virus, GT5, 72 h; replicon RNA level by real-time PCR, 3 days
Procedure: as §1, §2, §3, §4, §5

HCV replicon GT3a_Y93H = assay: Cell-based HCV replicon assay, GT3a Y93H; conditions: Hepatitis C virus, 72 h, read-out: GT3a_Y93H EC90
Procedure: as §1, §2, §3, §4, §5

HCV replicon GT1a_L31V = assay: Cell-based HCV replicon assay, GT1a L31V; conditions: Hepatitis C virus, 72 h, read-out: GT1a_L31V EC90
Procedure: as §1, §2, §3, §4, §5

HCV replicon GT3a_WT = assay: Cell-based HCV replicon assay, GT3a WT; conditions: Hepatitis C virus, 72 h; replicon RNA level by real-time PCR, 3 days
Procedure: as §1, §2, §3, §4, §5

HCV replicon GT1a_Y93H = assay: Cell-based HCV replicon assay, GT1a Y93H; conditions: Hepatitis C virus, 72 h, read-out: GT1a_Y93H EC90
Procedure: as §1, §2, §3, §4, §5

HCV replicon GT2a = assay: Cell-based HCV replicon assay, GT2a; conditions: Hepatitis C virus, 72 h, read-out: GT2a EC90
Procedure: as §1, §2, §3, §4, §5

HCV replicon GT2b_31M = assay: Cell-based HCV replicon assay, GT2b 31M; conditions: Hepatitis C virus, 72 h, read-out: GT2b_31M EC90
Procedure: as §1, §2, §3, §4, §5

HCV replicon Gt1a_WT = assay: Cell-based HCV replicon assay, GT1a WT; conditions: Hepatitis C virus, 72 h; replicon RNA level by real-time PCR, 3 days
Procedure: as §1
(§6) The amount of HCV replicon RNA per cell is quantified using a linear regression curve for a known nanogram (ng) amount of HCV replicon total RNA. […] The amount of HCV RNA for each replicon sample is calculated by taking the sample's Ct value, minus the line intercept, divided by the slope of the line. Similarly, the amount of Cyclophilin mRNA per cell is also quantified using a linear regression curve for a known nanogram (ng) amount of HCV replicon total RNA. […]

HCV replicon GT1a_M28V = assay: Cell-based HCV replicon assay, GT1a M28V; conditions: Hepatitis C virus, 72 h, read-out: GT1a_M28V EC90
Procedure: as §1, §6

[1] = replicon RNA level by real-time PCR, 3 days

SMILES	EC90 (HCV replicon GT6) [nM]	EC90 (HCV replicon GT1b_WT) [nM]	EC90 (HCV replicon GT4) [nM]	EC90 (HCV replicon GT1a_Q30R) [nM]	EC90 (HCV replicon GT5) [nM]	EC90 (HCV replicon GT3a_Y93H) [nM]	EC90 (HCV replicon GT1a_L31V) [nM]	EC90 (HCV replicon GT3a_WT) [nM]	EC90 (HCV replicon GT1a_Y93H) [nM]	EC90 (HCV replicon GT2a) [nM]	EC90 (HCV replicon GT2b_31M) [nM]	EC90 (HCV replicon GT1b_WT; [1]) [nM]	EC90 (HCV replicon Gt1a_WT) [nM]	EC90 (HCV replicon GT2a; [1]) [nM]	EC90 (HCV replicon GT1a_M28V) [nM]
COC(=O)NC(C(=O)N1C[Si](C)(C)C[C@H]1c1ncc(-c2ccc3c(c2)cc2n3[C@H](c3ccc(C4CC4)s3)Oc3cc(-c4cnc([C@@H]5CCCN5C(=O)[C@@H](NC(=O)OC)C(C)C)[nH]4)cc(F)c3-2)[nH]1)C1CCOCC1 (some centres unmarked) [Compound 14]	0.0842	0.00131	0.00111	0.0027	0.013	175	0.0062	0.018	0.02	0.0042	0.038				
COC(=O)NC(C(=O)N1CCC[C@H]1c1ncc(-c2ccc3c(c2)cc2n3[C@H](c3cnc(C4CC4)s3)Oc3cc(-c4cnc([C@@H]5C[Si](C)(C)CN5C(=O)[C@@H](NC(=O)OC)C5CCC(F)(F)CC5)[nH]4)cc(F)c3-2)[nH]1)C(C)C (some centres unmarked) [Compound 9]	0.0109	0.00108	0.00137	0.0247	0.009	322	0.026	2.24	0.29	0.00243	4.24				
COC(=O)N[C@H](C(=O)N1CCC[C@H]1c1ncc(-c2cc(F)c3c(c2)O[C@@H](c2cnc(C4CC4)s2)n2c-3cc3cc(-c4cnc([C@@H]5C[Si](C)(C)CN5C(=O)[C@@H](NC(=O)OC)[C@@H]5CCOC(C)(C)C5)[nH]4)ccc32)[nH]1)C(C)C [Compound 3]	0.0076	0.001	0.00112	0.008	0.0073	370	0.0097	0.285	0.079	0.00167	0.431				
COC(=O)NC(C(=O)N1CCC[C@H]1c1ncc(-c2ccc3c(c2)cc2n3[C@H](c3cnc(C4CC4)s3)Oc3cc(-c4cnc([C@@H]5C[Si](C)(C)CN5C(=O)[C@@H](NC(=O)OC)C5CCCCC5)[nH]4)cc(F)c3-2)[nH]1)C(C)C (some centres unmarked) [Compound 7]	0.0906	0.00244	0.00147	0.0039	0.0246	82	0.0045	0.051	0.022	0.00177	0.132				
COC(=O)N[C@H](C(=O)N1CCC[C@H]1c1ncc(-c2cc(F)c3c(c2)O[C@@H](c2ccc(C4CC4)s2)n2c-3cc3cc(-c4cnc([C@@H]5C[Si](C)(C)CN5C(=O)[C@H](N)c5ccccc5)[nH]4)ccc32)[nH]1)C(C)C [Compound 17]	0.105		0.0124	0.896	0.0527	765	1.76	3.28	6.18		5.33	0.00141	0.00142	0.0582	0.00192
COC(=O)N[C@H](C(=O)N1CCC[C@H]1c1ncc(-c2ccc3c(c2)cc2n3[C@H](c3cnc(C4CC4)s3)Oc3cc(-c4cnc([C@@H]5C[Si](C)(C)CN5C(=O)[C@@H](NC(=O)OC)C(C)C)[nH]4)cc(F)c3-2)[nH]1)C(C)C [Compound 6]	0.0057	0.00116	0.00135	0.0729	0.0069	118	0.0599	1.32	0.199	0.00339	3.04				
